The source of these data is PMC5617977, “Antibacterial Activity and Toxicity of Analogs of Scorpion Venom IsCT Peptides” (Antibiotics, 2017).

“Also recorded” adds a separate entry of the source. Where no end group is shown, it is not given here.

The first data set relates to Staphylococcus aureus (ATCC# 29213). The data set is described as follows: Antibacterial activity, standard broth (liquid) dilution. It counts as cell-based. The note with it: Luria Bertani broth, peptide 1, 10, 50, 100 μg/mL, 37 °C, 24 h, absorbance 600 nm; MIC interpolated at 0% bacterial growth; average of three independent experiments. As for the experimental part: (§1) Antimicrobial activities were determined by standard broth dilution against two Gram-positive and three Gram-negative bacteria. In general, the MICs seem to be higher than the concentrations tested in our experiments (Table 3). Only Staphylococcus aureus and Escherichia coli seem to be inhibited with both natural peptides but also by the leucine substituted analogue, IsCT1L1, at concentrations lower than 25 μg/mL. […] Curiously, some peptides—such as IsCT1V1, IsCT1E7, or even natural IsCT1—when tested with Bacillus cereus show significant bacteria growth inhibition at concentrations lower than 10 μg/mL.
(§2) Two Gram-positive bacteria: Staphylococcus aureus (ATCC# 29213) and Bacillus cereus (ATCC# 11778); and three Gram-negative bacteria: Salmonella typhimurium (ATCC# 14028), Enterobacter aerogenes (ATCC# 13048), and Escherichia coli (ATCC# 25922) were tested.
(§3) Activity was determined by the standard liquid dilution method described previously. All results are the average of three independent experiments. Briefly, cells were grown overnight at 37 °C in Luria Bertani broth and diluted in the same medium for assays. Bacteria were added to serial dilutions of the peptides (final concentrations of 1, 10, 50, and 100 μg/mL) and incubated at 37 °C for 24 h. Cell growth was measured by UV absorbance at 600 nm. For each bacterium, a solution containing no peptide (concentration 0 μg/mL) was processed under identical conditions and used as control for 100% bacterial growth. MICs were obtained from interpolation of 0% bacterial growth from plots. Results are the average of three independent experiments.
Turning to ILGKIWEGIESLF-NH2 [IsCT1E7], the “MIC S. aureus” value is >100 µg/mL.

For the substance ILGKAWEGAKSLF-NH2 [IsCT1A1], the “MIC S. aureus” value is >100 µg/mL.

With ILGKIWKGIKSLF-NH2 [IsCT1K7], the “MIC S. aureus” value was found to be 100 µg/mL.

Turning to “ILGAVWNGVKSLF-NH2 [IsCT2V1, valine substituted (positions 5 and 9) analog of IsCT2]”, the “MIC S. aureus” value was >100 µg/mL.

Take ILGKVWEGVKSLF-NH2 [IsCT1V1]: the “MIC S. aureus” value is >100 µg/mL.

As to “IFGAIWNGIKSLF-NH2 [IsCT2, reference compound]”, the “MIC S. aureus” value stood at 50 µg/mL.

Turning to “ILGKIWEGIKSLF-NH2 [IsCT1, reference compound]”, the “MIC S. aureus” value came to 50 µg/mL.

ILGKLWEGLKSLF-NH2 [IsCT1L1]: the “MIC S. aureus” value came out at 50 µg/mL.

As for “ILGAAWNGAKSLF-NH2 [IsCT2A1, alanine substituted (positions 5 and 9) analog of IsCT2]”, the “MIC S. aureus” value was >100 µg/mL.

The subject of another data set is Salmonella typhimurium (ATCC# 14028). The data set is described as above. It counts as cell-based. The note with it: Luria Bertani broth, peptide 1, 10, 50, 100 μg/mL, 37 °C, 24 h, absorbance 600 nm; MIC interpolated at 0% bacterial growth; average of three independent experiments. On the procedure: as §1, §2, §3
For the substance ILGKIWEGIESLF-NH2 [IsCT1E7], the “MIC S. typhimurium” value was >100 µg/mL.

In the case of ILGKAWEGAKSLF-NH2 [IsCT1A1], the “MIC S. typhimurium” value is >100 µg/mL.

Take ILGKIWKGIKSLF-NH2 [IsCT1K7]: the “MIC S. typhimurium” value came out at 100 µg/mL.

For the substance “ILGAVWNGVKSLF-NH2 [IsCT2V1, valine substituted (positions 5 and 9) analog of IsCT2]”, the “MIC S. typhimurium” value was >100 µg/mL.

As for ILGKVWEGVKSLF-NH2 [IsCT1V1], the “MIC S. typhimurium” value was >100 µg/mL.

For “IFGAIWNGIKSLF-NH2 [IsCT2, reference compound]”, the “MIC S. typhimurium” value is 100 µg/mL.

“ILGKIWEGIKSLF-NH2 [IsCT1, reference compound]”: the “MIC S. typhimurium” value was determined as 100 µg/mL.

ILGKLWEGLKSLF-NH2 [IsCT1L1]: the “MIC S. typhimurium” value stood at 100 µg/mL.

On to “ILGAAWNGAKSLF-NH2 [IsCT2A1, alanine substituted (positions 5 and 9) analog of IsCT2]”, for which the “MIC S. typhimurium” value was >100 µg/mL.

A further data set relates to Escherichia coli (ATCC# 25922). The data set is described as above. It counts as cell-based. The note with it: Luria Bertani broth, peptide 1, 10, 50, 100 μg/mL, 37 °C, 24 h, absorbance 600 nm; MIC interpolated at 0% bacterial growth; average of three independent experiments. As for the experimental part:
as §1, §2, §3
With ILGKIWEGIESLF-NH2 [IsCT1E7], the “MIC E. coli” value is >100 µg/mL.

Take ILGKAWEGAKSLF-NH2 [IsCT1A1]: the “MIC E. coli” value is >100 µg/mL.

As to ILGKIWKGIKSLF-NH2 [IsCT1K7], the “MIC E. coli” value is >100 µg/mL.

For the substance “ILGAVWNGVKSLF-NH2 [IsCT2V1, valine substituted (positions 5 and 9) analog of IsCT2]”, the “MIC E. coli” value was >100 µg/mL.

In the case of ILGKVWEGVKSLF-NH2 [IsCT1V1], the “MIC E. coli” value is >100 µg/mL.

Take “IFGAIWNGIKSLF-NH2 [IsCT2, reference compound]”: the “MIC E. coli” value amounted to 50 µg/mL.

With “ILGKIWEGIKSLF-NH2 [IsCT1, reference compound]”, the “MIC E. coli” value came out at 50 µg/mL.

Regarding ILGKLWEGLKSLF-NH2 [IsCT1L1], the “MIC E. coli” value was determined as 50 µg/mL.

Consider “ILGAAWNGAKSLF-NH2 [IsCT2A1, alanine substituted (positions 5 and 9) analog of IsCT2]”, for which the “MIC E. coli” value is >100 µg/mL.

The next data set deals with Enterobacter aerogenes (ATCC# 13048). The description is as above. The note with it: Luria Bertani broth, peptide 1, 10, 50, 100 μg/mL, 37 °C, 24 h, absorbance 600 nm; MIC interpolated at 0% bacterial growth; average of three independent experiments. It counts as cell-based. On the procedure: as §1, §2, §3
As for ILGKIWEGIESLF-NH2 [IsCT1E7], the “MIC E. aerogenes” value is >100 µg/mL.

As for ILGKAWEGAKSLF-NH2 [IsCT1A1], the “MIC E. aerogenes” value was >100 µg/mL.

Take ILGKIWKGIKSLF-NH2 [IsCT1K7]: the “MIC E. aerogenes” value is >100 µg/mL.

As for “ILGAVWNGVKSLF-NH2 [IsCT2V1, valine substituted (positions 5 and 9) analog of IsCT2]”, the “MIC E. aerogenes” value was >100 µg/mL.

For the substance ILGKVWEGVKSLF-NH2 [IsCT1V1], the “MIC E. aerogenes” value was >100 µg/mL.

Turning to “IFGAIWNGIKSLF-NH2 [IsCT2, reference compound]”, the “MIC E. aerogenes” value was >100 µg/mL.

Take “ILGKIWEGIKSLF-NH2 [IsCT1, reference compound]”: the “MIC E. aerogenes” value is >100 µg/mL.

Regarding ILGKLWEGLKSLF-NH2 [IsCT1L1], the “MIC E. aerogenes” value was >100 µg/mL.

Consider “ILGAAWNGAKSLF-NH2 [IsCT2A1, alanine substituted (positions 5 and 9) analog of IsCT2]”, for which the “MIC E. aerogenes” value was >100 µg/mL.

A further data set concerns Bacillus cereus (ATCC# 11778). The description is as above. It counts as cell-based. The note with it: Luria Bertani broth, peptide 1, 10, 50, 100 μg/mL, 37 °C, 24 h, absorbance 600 nm; MIC interpolated at 0% bacterial growth; average of three independent experiments. On the procedure: as §1, §2, §3
Take ILGKIWEGIESLF-NH2 [IsCT1E7]: the “MIC B. cereus” value was >100 µg/mL.

Consider ILGKAWEGAKSLF-NH2 [IsCT1A1], for which the “MIC B. cereus” value is >100 µg/mL.

For the substance ILGKIWKGIKSLF-NH2 [IsCT1K7], the “MIC B. cereus” value is >100 µg/mL.

For “ILGAVWNGVKSLF-NH2 [IsCT2V1, valine substituted (positions 5 and 9) analog of IsCT2]”, the “MIC B. cereus” value is >100 µg/mL.

As to ILGKVWEGVKSLF-NH2 [IsCT1V1], the “MIC B. cereus” value was >100 µg/mL.

For the substance “IFGAIWNGIKSLF-NH2 [IsCT2, reference compound]”, the “MIC B. cereus” value turned out to be 100 µg/mL.

“ILGKIWEGIKSLF-NH2 [IsCT1, reference compound]”: the “MIC B. cereus” value was >100 µg/mL.

For ILGKLWEGLKSLF-NH2 [IsCT1L1], the “MIC B. cereus” value is >100 µg/mL.

For the substance “ILGAAWNGAKSLF-NH2 [IsCT2A1, alanine substituted (positions 5 and 9) analog of IsCT2]”, the “MIC B. cereus” value is >100 µg/mL.

The same data set, now with this note: inhibition at low concentration, then plateau or slight increase of growth at higher concentrations (Figure S2).
“ILGKIWEGIKSLF-NH2 [IsCT1, reference compound]”: the “concentration showing significant bacteria growth inhibition, Bacillus cereus” value is recorded as “lower than 10 μg/mL”.

For another data set, the system named is human erythrocytes. The data set is described as follows: Hemolytic activity. It counts as cell-based. The following applies: 1% human erythrocytes in 1× PBS, peptide 1, 10, 50, 100 μg/mL, 37 °C, 1 h, hemoglobin at 416 nm, 100% control 1% TritonX-100; average of two independent experiments. On the procedure:
Hemolytic activity was carried out as described previously. Briefly, serial concentrations of peptides (final concentrations of 0 as blank, 1, 10, 50, and 100 μg/mL) were added to 1% human erythrocytes in 1× PBS buffer. The cell suspensions were incubated at 37 °C for 1 h and then centrifuged to remove unlysed erythrocytes. Released hemoglobin was determined spectrophotometrically at 416 nm. The control for 100% release of hemoglobin was a sample of 1% erythrocyte incubated in PBS with 1% TritonX-100. Results are the average of two independent experiments.
On to ILGKIWEGIESLF-NH2 [IsCT1E7], for which the “Hemolytic activity (in words)” value is on record as “no toxicity at all; also recorded: do not have any apparent citotoxicity; also recorded: no apparent cytotoxicity”.

Turning to ILGKIWKGIKSLF-NH2 [IsCT1K7], the “Hemolytic activity (in words)” value is “highest hemolytic activity”.

In the case of “IFGAIWNGIKSLF-NH2 [IsCT2, reference compound]”, the “Hemolytic activity (in words)” value was “highest hemolytic activity”.

With “ILGKIWEGIKSLF-NH2 [IsCT1, reference compound]”, the “Hemolytic activity (in words)” value was “highest hemolytic activity”.

With ILGKLWEGLKSLF-NH2 [IsCT1L1], the “Hemolytic activity (in words)” value is “highest hemolytic activity; also recorded: toxicity similar to the wild type peptides”.

The test system of a further data set is E. coli.
Experiment: not given
The note with it: ref Kim [16]; cited from earlier work. On the procedure: (§4) Studies of bacterial inhibition carried out by Dai with IsCT1 and IsCT2 natural peptides show a range of MICs of 1 to 5 μg/mL for different strains of S. aureus and 10 to 25 μg/mL for two strains of Bacillus. For Gram-negative bacteria, they show 5 to 120 μg/mL for two strains of E. coli but 100 or more than 200 μg/mL for other strains of Gram-negative bacteria (Pseudomonas aeruginosa and Proteus mirabilis). Bacterial inhibition studies by Kim with IsCT show MICs of 6 μg/mL for E. coli and 3 μg/mL for S. aureus and, for the IsCT1K7 analog, the reported concentrations are 3 and 1.5 μg/mL ...
With “ILGKIWEGIKSLF-NH2 [IsCT1, reference compound]”, the “MIC E. coli” value is 6 µg/mL.

In the next data set the test system is S. aureus.
Experiment: not given
The following applies: ref Kim [16]; cited from earlier work. On the procedure: as §4
For the substance “ILGKIWEGIKSLF-NH2 [IsCT1, reference compound]”, the “MIC S. aureus” value was 3 µg/mL.

The test system of another data set is Pseudomonas aeruginosa and Proteus mirabilis.
Experiment: not given
The following applies: printed as 100 or more than 200; ref Dai [21]; cited from earlier work. As for the experimental part: as §4
As to “IFGAIWNGIKSLF-NH2 [IsCT2, reference compound]”, the “MIC, other Gram-negative strains (Pseudomonas aeruginosa and Proteus mirabilis)” value is ≥ 100 µg/mL.

On to “ILGKIWEGIKSLF-NH2 [IsCT1, reference compound]”, for which the “MIC, other Gram-negative strains (Pseudomonas aeruginosa and Proteus mirabilis)” value is ≥ 100 µg/mL.
